{
  "source": "patent US8242123B2",
  "about": "“Insecticidal methods using 4-amino-5-chloro-thieno[2,3-d]-pyrimidine compounds” (Merial Limited, priority 2006, dated 2012)",
  "assay_type_in_all_cases": "in vivo",
  "key": {"[1]": {"test_system": "Rice Plant Hopper (Nilaparvata lugens)", "assay": "Rice plant hopper, sprayed rice seedlings", "settings": "for biological activity (0% no activity to 100% total control), Nilaparvata lugens: 300 ppm, comparative test; for mortality at 100 ppm: Nilaparvata lugens, after 72 hours, rice seedlings sprayed, 10 adults", "description": "(§1) In the following tests, if not precised otherwise, the formulated solutions of some of the compound examples were diluted to an active ingredient concentration of 300 ppm, and the diluted solutions were applied in the below mentioned tests.\n(§2) Rice seedlings were cleaned and washed 24 hours before spraying. The active compounds were formulated in 50:50 acetone:water and 0.1% vol/vol surfactant (EL 620) was added. Potted rice seedlings were sprayed with 5 ml test solution, air dried, placed in cages and inoculated with 10 adults. Treated rice plants were kept at 28-29° C. and relative humidity of 50-60%. Percent mortality was recorded after 72 hours.\n(§3) The biological activity in tables B.1 and B.2 was evaluated on scale range from 0% as showing no biological activity to 100% as having total control. The comparative biological tests were conducted as described above."}, "[2]": {"test_system": "Cotton Aphid (aphis gossypii), Mixed Life Stages", "assay": "Cotton aphid, mixed life stages, infested cotyledon dip test", "settings": "300 ppm; comparative test", "description": "as §1\nThe active compounds were formulated in 50:50 acteone/water and 100 ppm Kinetic™ surfactant\nCotton plants at the cotyledon stage were infested prior to treatment by placing a heavily infested leaf from the main aphid colony on top of each cotyledon. The aphids were allowed to transfer overnight and the host leaf was removed. The infested cotyledons were then dipped and agitated in the test solution for 3 seconds and allowed to dry in a fume hood. Test plants were maintained under fluorescent lighting in a 24-hr photoperiod at 25° C. and 20-40% relative humidity. Aphid mortality on the treated plants, relative to mortality on untreated check plants, was determined after 5 days.\nas §3"}, "[3]": {"test_system": "Silverleaf Whitefly (Bemisia argentifolii)", "assay": "Silverleaf whitefly, cotton cotyledon dip test", "settings": "for biological activity (0% no activity to 100% total control), Bemesia argentifolia: 300 ppm, comparative test; for mortality at 100 ppm: Bemisia argentifolii, 72 h, 3 days after treatment, adults on cotton cotyledons, read-out: mortality compared to untreated controls (silverleaf whitefly)", "description": "as §1\n(§4) The active compounds were formulated in 50:50 acetone:water and 100 ppm Kinetic™ surfactant.\nSelected cotton plants were grown to the cotyledon state (one plant per pot). The cotyledons were dipped into the test solution to provide complete coverage of the foliage and placed in a well-vented area to dry. Each pot with treated seedling was placed in a plastic cup and 10 to 12 whitefly adults (approximately 3-5 day old) were introduced. The insects were colleted using an aspirator and an 0.6 cm, non-toxic TygonO tubing (R-3603) connected to a barrier pipette tip. The tip, containing the collected insects, was then gently inserted into the soil containing the treated plant, allowing insects to crawl out of the tip to reach the foliage for feeding. The cups were covered with a reusable screened lid (150 micron mesh polyester screen PeCap from Tetko Inc). Test plants were maintained in the holding room at about 25° C. and 20-40% relative humidity for 3 days avoiding direct exposure to the fluorescent light (24 hour photoperiod) to prevent trapping of heat inside the cup. Mortality was assessed 3 days after treatment of the plants.\nas §3"}, "[4]": {"test_system": "Green Peach Aphid (Myzus persicae), Mixed Life Stages", "assay": "Green peach aphid, mixed life stages, bell pepper leaf dip test", "settings": "300 ppm; comparative test", "description": "as §1\nBell pepper plants at the first true-leaf stage were infested prior to treatment by placing heavily infested leaves from the main aphid colony on top of the treatment plants. The aphids were allowed to transfer overnight to accomplish an infestation of 30-40 aphids per plant and the host leaves were removed. The infested leaves of the test plants were then dipped and agitated in the test solution for 3 seconds and allowed to dry in a fume hood. Test plants were maintained under fluorescent lighting in a 24-hr photoperiod at 25° C. and 20-40% relative humidity. Aphid mortality on the treated plants, relative to mortality on untreated check plants, was determined after 5 days.\nas §3"}, "[5]": {"test_system": "Southern Armyworm (spodoptera eridania), 2nd-3rd Instar Larvae", "assay": "Southern armyworm, lima bean foliage dip test", "settings": "for biological activity (0% no activity to 100% total control), Spodoptera eridania: 300 ppm, comparative test", "description": "as §1\nThe active compounds were formulated as a 10.000 ppm solution in a mixture of 35% acetone and water, which was diluted with water, if needed.\nSieva lima bean foliage, expanded to the first true leaves, were dipped and agitated in the test solution for 3 seconds and then allowed to dry in a fume hood. The treated plant was then placed in 25-cm plastic perforated zip enclosure bags, ten 2nd-instar larvae were added, and the bags sealed. After 4 days, observations were made of mortality, plant feeding, and of any interference with larval growth.\nas §3"}, "[6]": {"test_system": "Cowpea Aphid (aphis craccivora)", "assay": "Cowpea aphid, sprayed potted cowpea plants", "settings": "population reduction recorded after 24, 72 and 120 hours", "description": "as §1\nThe active compounds were formulated in 50:50 acetone:water. Potted cowpea plants colonized with 100-150 aphids of various stages were sprayed after the pest population has been recorded. Population reduction was recorded after 24, 72, and 120 hours."}, "[7]": {"test_system": "Colorado Potato Beetle (Leptinotarsa decemlineata)", "assay": "Colorado potato beetle, potato leaf dip test", "settings": "foliar, 120 h, 5 days after treatment, larvae on dipped potato leaves, read-out: mortality compared to untreated controls (Colorado potato beetle)", "description": "as §1\nPotato plants were utilized for bioassays. Excised plant leaves were dipped into 1:1 acetone/water dilutions of the active compounds. After the leaves had dried, they were individually placed onto water-moistened filter paper on the bottoms of Petri dishes.\nEach dish was infested with 5-7 larvae and covered with a lid. Each treatment dilution was replicated 4 times. Test dishes were held at approximately 27° C. and 60% humidity. Numbers of live and morbid larvae were assessed in each dish at 5 days after treatment application, and mortality percentage was calculated."}, "Bean Aphid (aphis fabae)": {"test_system": "Bean Aphid (aphis fabae)", "assay": "Bean aphid, nasturtium plant dip test", "settings": "72 h, after 3 days, nasturtium plants dipped", "description": "as §1, §4\nNasturtium plants grown in Metro mix in the 1st leaf-pair stage (variety ‘Mixed Jewle’) were infested with approximately 2-30 laboratory-reared aphids by placing infested cut plants on top of the test plants. The cut plants were removed after 24 hr. Each plant was dipped into the test solution to provide complete coverage of the foliage, stem, protruding seed surface and surrounding cube surface and allowed to dry in the fume hood. The treated plants were kept at about 25° C. with continuous fluorescent light. Aphid mortality was determined after 3 days."}, "[8]": {"test_system": "Rice Green Leafhopper (Nephotettix virescens)", "assay": "Rice green leafhopper, sprayed rice seedlings", "settings": "after 72 hours, 10 adults", "description": "as §1\nas §2, with “acetone:water,” for “acetone:water”"}},
  "data": [
    {"smiles": "[H][C@H]1CC[C@H](Nc2ncnc3scc(Cl)c23)CC1", "note": "[reference compound]", "values": [
      {"measurement": "biological activity (0% no activity to 100% total control), Nilaparvata lugens", "setting": "[1]", "value": 0, "unit": "%"},
      {"measurement": "biological activity (0% no activity to 100% total control), Aphis gossypii", "setting": "[2]", "value": 75, "unit": "%"},
      {"measurement": "biological activity (0% no activity to 100% total control), Bemesia argentifolia", "setting": "[3]", "value": 0, "unit": "%"},
      {"measurement": "biological activity (0% no activity to 100% total control), Myzus persicae", "setting": "[4]", "value": 50, "unit": "%"},
      {"measurement": "biological activity (0% no activity to 100% total control), Spodoptera eridania", "setting": "[5]", "value": 0, "unit": "%"}
    ]},
    {"smiles": "CC(Nc1ncnc2scc(Cl)c12)c1ccc(OC(F)(F)F)cc1", "note": "(centres unmarked) [Compound 2, (5-Chloro-thieno[2,3-d]pyrimidin-4-yl)-[1-(4-trifluoromethoxy-phenyl)-ethyl]-amine]", "values": [
      {"measurement": "mortality at 100 ppm", "setting": "[1]", "value": "≥ 90", "unit": "%"},
      {"measurement": "mortality at 100 ppm", "setting": "[6]", "value": "≥ 75", "unit": "%"},
      {"measurement": "mortality at 100 ppm", "setting": "[3]", "value": "≥ 90", "unit": "%"},
      {"measurement": "mortality at 100 ppm", "setting": "[7]", "value": "≥ 90", "unit": "%"},
      {"measurement": "mortality at 100 ppm", "setting": "Bean Aphid (aphis fabae)", "value": "≥ 60", "unit": "%"},
      {"measurement": "mortality at 100 ppm", "setting": "[8]", "value": "≥ 60", "unit": "%"}
    ]},
    {"smiles": "FC(F)(F)Oc1ccc(CCNc2ncnc3scc(Cl)c23)cc1", "note": "[Compound 5, (5-Chloro-thieno[2,3-d]pyrimidin-4-yl)-[2-(4-trifluoromethoxy-phenyl)-ethyl]-amine]", "values": [
      {"measurement": "mortality at 100 ppm", "setting": "[1]", "value": "≥ 90", "unit": "%"},
      {"measurement": "mortality at 100 ppm", "setting": "[6]", "value": "≥ 75", "unit": "%"},
      {"measurement": "mortality at 100 ppm", "setting": "[3]", "value": "≥ 90", "unit": "%"},
      {"measurement": "mortality at 100 ppm", "setting": "[7]", "value": "≥ 90", "unit": "%"},
      {"measurement": "mortality at 100 ppm", "setting": "[8]", "value": "≥ 60", "unit": "%"},
      {"measurement": "mortality at 100 ppm", "setting": "[5]; Spodoptera eridania, foliar, 96 h, 100 ppm, after 4 days, lima bean foliage dipped, read-out: mortality in comparison with untreated controls (southern armyworm)", "value": "≥ 60", "unit": "%"}
    ]},
    {"smiles": "CC(C)(C)[C@H]1CC[C@@H](Nc2ncnc3scc(Cl)c23)CC1", "note": "[drawing 15]", "values": [
      {"measurement": "biological activity (0% no activity to 100% total control), Nilaparvata lugens", "setting": "[1]", "value": 100, "unit": "%"},
      {"measurement": "biological activity (0% no activity to 100% total control), Aphis gossypii", "setting": "[2]", "value": 100, "unit": "%"},
      {"measurement": "biological activity (0% no activity to 100% total control), Bemesia argentifolia", "setting": "[3]", "value": 100, "unit": "%"},
      {"measurement": "biological activity (0% no activity to 100% total control), Myzus persicae", "setting": "[4]", "value": 100, "unit": "%"},
      {"measurement": "biological activity (0% no activity to 100% total control), Spodoptera eridania", "setting": "[5]", "value": 100, "unit": "%"}
    ]},
    {"smiles": "CC(C)(C)[C@H]1CC[C@@H](Nc2ncnc3scc(Cl)c23)CC1", "note": "[Compound 6, cis-(4-tert-Butyl-cyclohexyl)-(5-chloro-thieno[2,3-d]pyrimidin-4-yl)-amine]", "values": [
      {"measurement": "mortality at 100 ppm", "setting": "[1]", "value": "≥ 90", "unit": "%"},
      {"measurement": "mortality at 100 ppm", "setting": "[6]", "value": "≥ 75", "unit": "%"},
      {"measurement": "mortality at 100 ppm", "setting": "[3]", "value": "≥ 90", "unit": "%"},
      {"measurement": "mortality at 100 ppm", "setting": "[7]", "value": "≥ 90", "unit": "%"},
      {"measurement": "mortality at 100 ppm", "setting": "Bean Aphid (aphis fabae)", "value": "≥ 60", "unit": "%"},
      {"measurement": "mortality at 100 ppm", "setting": "[8]", "value": "≥ 60", "unit": "%"}
    ]},
    {"smiles": "C[C@H](Nc1ncnc2scc(Cl)c12)c1ccccc1", "note": "[reference compound]", "values": [
      {"measurement": "biological activity (0% no activity to 100% total control), Nilaparvata lugens", "setting": "[1]", "value": 0, "unit": "%"},
      {"measurement": "biological activity (0% no activity to 100% total control), Aphis gossypii", "setting": "[2]", "value": 100, "unit": "%"},
      {"measurement": "biological activity (0% no activity to 100% total control), Bemesia argentifolia", "setting": "[3]", "value": 0, "unit": "%"},
      {"measurement": "biological activity (0% no activity to 100% total control), Myzus persicae", "setting": "[4]", "value": 100, "unit": "%"}
    ]}
  ]
}
